In the first test the test system is IL-2 stimulated pSTAT5 in CD4+ T cells. Nature of the test: Inhibition of IL-2 stimulated pSTAT5 in CD4+ T cells isolated from murine splenocytes. The test is classed as cell-based. The conditions noted are these: Mus musculus, AlphaLisa, read-out: pIC50, inhibition of IL-2 stimulated pSTAT5 (converted). The protocol: The potency of test compounds for inhibition of interleukin-2 (IL-2) stimulated STAT5 phosphorylation was measured in the CD4+ T cells isolated from murine splenocytes using AlphaLisa. Because IL-2 signals through JAK3, this assay provides a measure of JAK3 cellular potency in mouse.
Phosphorylated STAT5 was measured via the AlphaLISA SureFire Ultra pSTAT5 (Tyr694/699) kit (PerkinElmer).
CD4+ T cells were isolated from murine splenocytes via negative selection on a magnetic column (Miltnyi Biotec) and re-suspended in assay media (phenol red-free DMEM (Life Technologies) supplemented with 10% FBS (ATCC)). Cells were seeded at 50,000 cells/well in assay media (2 μL/well). Compounds were serially diluted in DMSO and diluted to 2× final concentration in assay media. Compound was added (4 μl/well) and the cells incubated at 37° C., 5% CO2 for 1 hour, followed by the addition of IL-2 (R&D Systems; final concentration 7 ng/ml) in pre-warmed assay media (2 μL) for 30 minutes. After cytokine stimulation, cells were lysed with 2 μl of 5× AlphaLisa Lysis Buffer (PerkinElmer). The lysate was shaken at 900 rpm for 10 minutes at room temperature (RT). Phosphorylated STAT5 was measured via the pSTAT5 AlphaLisa kit (PerkinElmer). Freshly prepared acceptor bead mixture was dispensed onto lysate (5 ul) under green filtered <100 lux light. Plates were shaken at 900 rpm for 2 mins, briefly spun down, and incubated for 2 hrs at RT in the dark. Donor beads were dispensed (5 μl) under green filtered <100 lux light. Plates were shaken at 900 rpm for 2 mins, briefly spun down, and incubated overnight at RT in the dark. Luminescence was measured with excitation at 689 nm and emission at 570 nm using an EnVision plate reader (PerkinElmer) under green filtered <100 lux light.
To determine the inhibitory potency of test compounds in response to IL-2, the average emission intensity of beads bound to pSTAT5 was measured in primary CD4+ T cells isolated from murine splenocytes. IC50 values were determined from analysis of the inhibition curves of signal intensity vs compound concentration. Data are expressed as pIC50 (negative decadic logarithm IC50) values (mean±standard deviation).
For orientation: In Alpha technology, singlet oxygen from a donor bead excites a nearby acceptor bead.
Consider `C=CC(=O)N1CC(C)(COc2nc(-c3ccc(O)c(F)c3)nc3[nH]ncc23)C1` [Compound 21, 1-(3-(((6-(3-fluoro-4-hydroxyphenyl)-1H-pyrazolo[3,4-d]pyrimidin-4-yl)oxy)methyl)-3-methylazetidin-1-yl)prop-2-en-1-one], for which the IC50 was below 1 µM. On to `C=CC(=O)N1CC(CC)(COc2cc(-c3ccc(O)cc3)nc3[nH]ncc23)C1` [Compound 22, 1-(3-ethyl-3-(((6-(4-hydroxyphenyl)-1H-pyrazolo[3,4-b]pyridin-4-yl)oxy)methyl)azetidin-1-yl)prop-2-en-1-one], for which the IC50 is below 1 µM. For `C=CC(=O)N1CC(C(C)(C)Oc2cc(-c3ccc(O)cc3)nc3[nH]ncc23)C1` [Compound 20, 1-(3-(2-((6-(4-hydroxyphenyl)-1H-pyrazolo[3,4-b]pyridin-4-yl)oxy)propan-2-yl)azetidin-1-yl)prop-2-en-1-one], the IC50 is below 1 µM.

For the next test, the target named is T1, JAK3 (Homo sapiens, UniProt P52333).
T1 sequence (P52333 1-1124): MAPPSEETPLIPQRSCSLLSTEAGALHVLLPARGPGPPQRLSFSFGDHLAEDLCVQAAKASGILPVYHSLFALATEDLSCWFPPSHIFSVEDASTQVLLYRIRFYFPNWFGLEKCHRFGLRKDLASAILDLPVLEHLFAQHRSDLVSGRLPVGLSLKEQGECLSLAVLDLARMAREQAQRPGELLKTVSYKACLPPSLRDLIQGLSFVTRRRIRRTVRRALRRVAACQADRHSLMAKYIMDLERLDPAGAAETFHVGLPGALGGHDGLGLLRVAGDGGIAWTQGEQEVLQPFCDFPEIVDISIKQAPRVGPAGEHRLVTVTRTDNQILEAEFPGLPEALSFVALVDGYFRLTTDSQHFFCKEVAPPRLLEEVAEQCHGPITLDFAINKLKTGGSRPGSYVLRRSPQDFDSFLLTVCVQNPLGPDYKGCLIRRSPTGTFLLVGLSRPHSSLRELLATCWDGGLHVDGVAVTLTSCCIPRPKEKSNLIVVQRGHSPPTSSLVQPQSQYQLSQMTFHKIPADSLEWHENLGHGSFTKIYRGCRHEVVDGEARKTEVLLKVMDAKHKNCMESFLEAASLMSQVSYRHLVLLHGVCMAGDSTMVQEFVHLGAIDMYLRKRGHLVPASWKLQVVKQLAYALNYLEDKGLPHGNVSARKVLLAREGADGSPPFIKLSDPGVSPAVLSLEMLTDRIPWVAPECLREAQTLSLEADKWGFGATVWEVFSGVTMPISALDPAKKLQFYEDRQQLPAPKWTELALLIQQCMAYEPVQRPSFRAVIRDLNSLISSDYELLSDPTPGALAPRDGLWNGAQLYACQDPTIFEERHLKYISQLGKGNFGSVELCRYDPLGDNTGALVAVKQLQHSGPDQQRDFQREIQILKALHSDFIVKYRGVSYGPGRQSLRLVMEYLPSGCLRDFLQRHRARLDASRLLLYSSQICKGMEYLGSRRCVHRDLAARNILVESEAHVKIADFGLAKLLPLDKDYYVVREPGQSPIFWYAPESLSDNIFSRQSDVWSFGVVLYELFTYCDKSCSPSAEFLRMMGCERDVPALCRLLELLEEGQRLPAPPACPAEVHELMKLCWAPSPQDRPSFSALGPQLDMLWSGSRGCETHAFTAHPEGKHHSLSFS
The experiment in a line: Co-crystal structures bound to human JAK3. The conditions noted are these: ATP binding site of human JAK3. The text has this:
Co-crystal structures were obtained for compounds 1, 3 and 4 each bound to human JAK3. The resolutions for the complex structures were at 2.73 Å, 2.80 Å, and 2.64 Å respectively for compound 1, compound 3 and compound 4. […] Based on a distance of less than 3.5 Å of the donor and acceptor atoms four specific hydrogen bonds were identified for each of the ligands, namely to the main chain atoms of Glu903, Leu905 and Phe968 as well as the side chain atoms of Glu871. An additional hydrogen bond was identified for compound 1 to the side chain atoms of Asp 912. […] The S—H moiety of the cysteine residue performs an addition reaction to the Michael system. The observed results of the covalent binding interaction in the crystal structures confirms the irreversible binding nature for each of these ligands to JAK3.
Take `CN(C)C/C=C/C(=O)N1CC(COc2cc(-c3ccc(O)cc3)cc3[nH]ncc23)C1` [Compound 1, (E)-4-(dimethylamino)-1-(3-(((6-(4-hydroxyphenyl)-1H-indazol-4-yl)oxy)methyl)azetidin-1-yl)but-2-en-1-one]: the “binding mode in co-crystal structure” value is reported as “covalently bound to Cys909 of JAK3”. On the same count and under the same terms, for `C=CC(=O)N1CC(COc2nc(-c3ccc(O)cc3)nc3[nH]ncc23)C1` [Compound 4, 1-(3-(((6-(4-hydroxyphenyl)-1H-pyrazolo[3,4-d]pyrimidin-4-yl)oxy)methyl)azetidin-1-yl)prop-2-en-1-one] the value was “covalently bound to Cys909 of JAK3”; for `CN(C)C/C=C/C(=O)N1CC(C(C)(C)Oc2cc(-c3ccc(O)c(Cl)c3)cc3[nH]ncc23)C1` [Compound 3, (E)-1-(3-(2-((6-(3-chloro-4-hydroxyphenyl)-1H-indazol-4-yl)oxy)propan-2-yl)azetidin-1-yl)-4-(dimethylamino)but-2-en-1-one], “covalently bound to Cys909 of JAK3”.

The record behind these values is patent US10392368B2, “Pyrazolo and triazolo bicyclic compounds as JAK kinase inhibitors” (THERAVANCE BIOPHARMA R&D IP, LLC, priority 2017, dated 2019).
